Measured values as given in patent US20230285576A1, “TREATMENT OF CANCER USING A CYCLODEXTRIN-CONTAINING POLYMER-TOPOISOMERASE INHIBITOR CONJUGATE AND A PARP INHIBITOR” (ELLIPSES PHARMA LTD, priority 2020, published 2023).
Read-outs that look alike come from different tables or passages of the source. Values belong to the compound of their own block, whether it stands above or below them.

Key:
[1] = tested on: carbonic anhydrase 9 (CA9); test: CA9 immunostaining in HT-29 colorectal xenograft tumours; format: in vivo, nude mouse; conditions: 7 days after a single IV treatment; CRLX-101 5 mg/kg, CPT 0.5 mg/kg
NCI-H510A = test: MTS viability assay, CRLX-101 alone and with Olaparib, NCI-H510A; format: cell-based; conditions: Homo sapiens, 72 hours, Olaparib alone, read-out: IC50 relative
Experimental: (§1) The optimal seeding density for each cell line (DU145, Capan-1, Hs 766T, PANC-1, NUGC4, HEY, OVCAR3, OAW28 and NCI-H510A) will be determined prior to running the assay. Cells will be seeded in 50 μL media (in triplicate for each condition). Three 96 well flat bottom tissue culture plates will be required per cell line (See appendix I). Cells will be allowed to adhere overnight at 37° C., 5% CO2, 20% O2 before compound is added.
(§2) Day 5: Analysis of Proliferation • Remove plates from the incubator and perform a Cell Titre 96 Aqueous One Solution Cell Proliferation Assay (Promega #G3582) according to the manufacturers protocol. • Record absorbance at 490 nm using colorimetric plate reader.

Hs 766T = test: MTS viability assay, CRLX-101 alone and with Olaparib, Hs 766T; format: cell-based; conditions: Hs766T, 72 hours, Olaparib alone, read-out: IC50 relative
Experimental: as §1, §2

OAW28 = test: MTS viability assay, CRLX-101 alone and with Olaparib, OAW28; format: cell-based; conditions: Homo sapiens, OAW-28, 72 hours, Olaparib alone, read-out: IC50 relative
Experimental: as §1, §2

PANC-1 = test: MTS viability assay, CRLX-101 alone and with Olaparib, PANC-1; format: cell-based; conditions: Homo sapiens, 72 hours, Olaparib alone
Experimental: as §1, §2

Capan-1 [2] = test: MTS viability assay, CRLX-101 alone and with Olaparib, Capan-1 (schedule 2); format: cell-based; conditions: Homo sapiens
Experimental: as §1, §2

DU145 = test: MTS viability assay, CRLX-101 alone and with Olaparib, DU145; format: cell-based; conditions: Homo sapiens, DU-145, 72 hours, Olaparib alone
Experimental: as §1, §2

Capan-1 [3] = test: MTS viability assay, CRLX-101 alone and with Olaparib, Capan-1 (schedule 1); format: cell-based; conditions: Homo sapiens, 72 hours, Olaparib alone
Experimental: as §1, §2

OVCAR3 = test: MTS viability assay, CRLX-101 alone and with Olaparib, OVCAR3; format: cell-based; conditions: Homo sapiens, OVCAR-3, 72 hours, Olaparib alone
Experimental: as §1, §2

NUGC4 = test: MTS viability assay, CRLX-101 alone and with Olaparib, NUGC4; format: cell-based; conditions: Homo sapiens, NUGC-4, 72 hours, Olaparib alone, read-out: IC50 relative
Experimental: as §1, §2

[4] = tested on: NCI-H417a small-cell lung cancer tumour; format: in vivo; conditions: wild type BRCA1 and BRCA2
[5] = tested on: SKOV-3 human ovarian xenograft; conditions: CRLX-101 9 mg/kg and/or Paclitaxel 30 mg/kg, QW × 3 IV
Description: Body weight curves are means relative to the initial body weight, with bars indicating standard deviation. Survival is indicated as the percentage of animals remaining on study because mice bearing tumours that reached a predetermined cut off size (1500 mm3) were removed from the experiment.

HIF-1α = HIF-1α protein levels after CRLX-101 alone or combined with antiangiogenic drugs in A2780 ovarian tumour model; format: in vivo, athymic nude mice; conditions: for HIF-1Q % of Control mean + SD: CRLX-101 5 mg/kg QW × 2, n=3
HIF-2α = test: Time course of HIF-2α inhibition in xenograft tumours (western blot); format: in vivo, nude mouse; conditions: single dose; same time period
SUM159 tumours = test: Tumour growth and tumour-initiating capacity in orthotopic SUM159 triple-negative breast cancer model; format: in vivo, mice; conditions: pre-treatment for 2 weeks
Description: Such stimulation of CSCs could increase drug resistance and metastasis, and may be further enhanced by treatment with antiangiogenic drugs, which can increase tumour hypoxia by reducing blood flow to tumours. Inhibition of HIF-1α might therefore be beneficial to patients by reducing CSCs in tumours. […] Previously published studies have shown that Bevacizumab increases the CSC population mediated primarily by hypoxia induced up-regulation of HIF-1α. […] At the end of these 2 weeks, tumours were extracted and 100 tumour cells were implanted orthotopically into new, untreated mice.
Mice were dosed for two weeks at the dose level and frequency indicated in the legend. Tumour growth curves represent mean tumour volume and error bars represent standard deviation.

[6] = Mus musculus, A2780, read-out: HIF-1Q % of Control mean + SD

Compound: CC[C@@]1(O)C(=O)OCc2c1cc1n(c2=O)Cc2cc3ccccc3nc2-1 [CPT, 20(S)-Camptothecin]
Inhibition of CA9 in tumours [1]: not

IC50 (NCI-H510A): 2.66 µM
IC50 (PANC-1; read-out: IC50 Absolute): 79.2 µM
IC50 (PANC-1; read-out: IC50 relative): 9.26 µM
IC50 (DU145; read-out: IC50 Absolute): 93.1 µM
IC50 (DU145; read-out: IC50 relative): 11.6 µM
IC50 (OVCAR3; read-out: IC50 Absolute): 43.4 µM
IC50 (OVCAR3; read-out: IC50 relative): 3.03 µM
Compound: O=C(c1cc(Cc2n[nH]c(=O)c3ccccc23)ccc1F)N1CCN(C(=O)C2CC2)CC1 [Olaparib, 4-[3-(4-cyclopropanecarbonyl-piperazine-1-carbonyl)-4-fluoro-benzyl]-2H-phthalazin-1-one]
IC50 (Hs 766T): 14.1 µM
IC50 (OAW28): ~8.88 µM
IC50 (Capan-1 [2]; CAPAN-1, read-out: IC50 relative): 0.00546 µM
IC50 (Capan-1 [2]; Capan-1 (schedule 2), Olaparib alone, read-out: IC50 Absolute): 488 µM
IC50 (Capan-1 [3]; read-out: IC50 Absolute): 40.1 µM
IC50 (Capan-1 [3]; read-out: IC50 relative): 5.71 µM
IC50 (NUGC4): ~11.5 µM
Response of the model to monotherapy [4]: relatively non-responsive

Compound: CC(=O)O[C@H]1C(=O)[C@@]2(C)[C@H]([C@H](OC(=O)c3ccccc3)[C@]3(O)C[C@H](OC(=O)[C@H](O)[C@@H](NC(=O)c4ccccc4)c4ccccc4)C(C)=C1C3(C)C)[C@]1(OC(C)=O)CO[C@@H]1C[C@@H]2O [Paclitaxel]
CR (complete regressions) ([5]; N=10): 1
PR (partial regressions) ([5]; N=10): 0
TFS (tumour-free survivors) ([5]; N=10): 1
Median TTE ([5]; endpoint 1500 mm3, N=10): 42.8 days
TGD ([5]; vs control group): 18%

Compound: Cc1ccc(Nc2nccc(N(C)c3ccc4c(C)n(C)nc4c3)n2)cc1S(N)(=O)=O [Pazopanib]
HIF-1α protein level (% of control) at 150 mg/kg (HIF-1α; [6]): 226 ± 127%

Compound: CNC(=O)c1cc(Oc2ccc(NC(=O)Nc3ccc(Cl)c(C(F)(F)F)c3)c(F)c2)ccn1 [Regorafenib]
HIF-1α protein level (% of control) at 50 mg/kg (HIF-1α; [6]): 171 ± 4%

Compound: CC[C@@]1(O)C(=O)OCc2c1cc1n(c2=O)Cc2cc3c(CN(C)C)c(O)ccc3nc2-1 [Topotecan]
Inhibition of HIF-2α, in words (HIF-2α): unable to significantly inhibit

Compound: Aflibercept: antiangiogenic drug
HIF-1Q % of Control mean + SD (HIF-1α; Aflibercept study, Aflibercept 25 mg/kg Days 1, 4, 8): 235 ± 80%

Compound: Bevacizumab: antiangiogenic drug, anti-VEGF antibody
HIF-1Q % of Control mean + SD (HIF-1α; Bevacizumab study, Bevacizumab 5 mg/kg Days 1, 4, 8): 127 ± 18%
Tumour-initiating capacity of 100 re-implanted tumour cells (SUM159 tumours): enhanced tumour-initiating capacity compared to control
